# Where a name gives a salt, the structure may show the parent alone.
# Tests used:
# BT-474 [1] = assay: drug sensitivity score (DSS) (DSS (dimensionless)); higher = more sensitive; extreme values may be limits of the assay; details: 72 h
# In short: (§1)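 Breast cancer cell lines and their resistant derivatives were seeded into 384-well plates holding FO2Baq library drugs at five concentrations spanning a 10 000-fold range. Resistant lines were in medium with 1 μM of the selecting drug. Cells were incubated 72 h at 37 °C, and CellTiter-Glo viability was read on a PHERAstar and normalised to vehicle-only and positive controls. Drug sensitivity score, relative IC50 (curve midpoint) and top-dose inhibition came from logistic dose–response fits (Breeze pipeline).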
# ZR-75-1 Tam1 [2] = assay: as above; details: 4-OH-tamoxifen in medium 1 µM; 72 h
# In short: as §1
# MCF-7 Tam1 [3] = assay: as above; details: 4-OH-tamoxifen in medium 1 µM; 72 h
# In short: as §1
# ZR-75-1 [4] = assay: as above; details: 72 h
# In short: as §1
# MCF-7 [5] = assay: as above; details: 72 h
# In short: as §1
# T-47D Tam1 [6] = assay: as above; details: 4-OH-tamoxifen in medium 1 µM; 72 h
# In short: as §1
# BT-474 Tam1 [7] = assay: as above; details: 4-OH-tamoxifen in medium 1 µM; 72 h
# In short: as §1
# BT-474 Tam2 [8] = assay: as above; details: 4-OH-tamoxifen in medium 1 µM; 72 h
# In short: as §1
# T-47D Tam2 [9] = assay: as above; details: 4-OH-tamoxifen in medium 1 µM; 72 h
# In short: as §1
# ZR-75-1 Tam2 [10] = assay: as above; details: 4-OH-tamoxifen in medium 1 µM; 72 h
# In short: as §1
# T-47D [11] = assay: as above; details: 72 h
# In short: as §1
# BT-474 [12] = assay: relative IC50 (midpoint of fitted logistic curve, plateau may be below 50% inhibition; CellTiter-Glo viability); higher = less potent; details: 72 h
# In short: as §1
# MCF-7 Tam1 [13] = assay: as above; details: 4-OH-tamoxifen in medium 1 µM; 72 h
# In short: as §1
# ZR-75-1 [14] = assay: as above; details: 72 h
# In short: as §1
# MCF-7 [15] = assay: as above; details: 72 h
# In short: as §1
# T-47D Tam1 [16] = assay: as above; details: 4-OH-tamoxifen in medium 1 µM; 72 h
# In short: as §1
# BT-474 Tam1 [17] = assay: as above; details: 4-OH-tamoxifen in medium 1 µM; 72 h
# In short: as §1
# BT-474 Tam2 [18] = assay: as above; details: 4-OH-tamoxifen in medium 1 µM; 72 h
# In short: as §1
# T-47D Tam2 [19] = assay: as above; details: 4-OH-tamoxifen in medium 1 µM; 72 h
# In short: as §1
# T-47D [20] = assay: as above; details: 72 h
# In short: as §1
# ZR-75-1 Tam1 [21] = assay: as above; details: 4-OH-tamoxifen in medium 1 µM; 72 h
# In short: as §1
# ZR-75-1 Tam2 [22] = assay: as above; details: 4-OH-tamoxifen in medium 1 µM; 72 h
# In short: as §1
Structure (SMILES),drug sensitivity score (BT-474 [1]; 4-OH-tamoxifen in medium 0 µM),drug sensitivity score (BT-474 [1]; 4-OH-tamoxifen in medium 1 µM),drug sensitivity score (ZR-75-1 Tam1 [2]),drug sensitivity score (MCF-7 Tam1 [3]),drug sensitivity score (ZR-75-1 [4]; 4-OH-tamoxifen in medium 0 µM),drug sensitivity score (ZR-75-1 [4]; 4-OH-tamoxifen in medium 1 µM),drug sensitivity score (MCF-7 [5]; 4-OH-tamoxifen in medium 0 µM),drug sensitivity score (MCF-7 [5]; 4-OH-tamoxifen in medium 1 µM),drug sensitivity score (T-47D Tam1 [6]),drug sensitivity score (BT-474 Tam1 [7]),drug sensitivity score (BT-474 Tam2 [8]),drug sensitivity score (T-47D Tam2 [9]),drug sensitivity score (ZR-75-1 Tam2 [10]),drug sensitivity score (T-47D [11]; 4-OH-tamoxifen in medium 0 µM),drug sensitivity score (T-47D [11]; 4-OH-tamoxifen in medium 1 µM),relative IC50 (BT-474 [12]; 4-OH-tamoxifen in medium 0 µM),relative IC50 (BT-474 [12]; 4-OH-tamoxifen in medium 1 µM),relative IC50 (MCF-7 Tam1 [13]),relative IC50 (ZR-75-1 [14]; 4-OH-tamoxifen in medium 0 µM),relative IC50 (ZR-75-1 [14]; 4-OH-tamoxifen in medium 1 µM),relative IC50 (MCF-7 [15]; 4-OH-tamoxifen in medium 0 µM),relative IC50 (MCF-7 [15]; 4-OH-tamoxifen in medium 1 µM),relative IC50 (T-47D Tam1 [16]),relative IC50 (BT-474 Tam1 [17]),relative IC50 (BT-474 Tam2 [18]),relative IC50 (T-47D Tam2 [19]),relative IC50 (T-47D [20]; 4-OH-tamoxifen in medium 1 µM),relative IC50 (ZR-75-1 Tam1 [21]),relative IC50 (T-47D [20]; 4-OH-tamoxifen in medium 0 µM),relative IC50 (ZR-75-1 Tam2 [22])
CCC1=C[C@@H]2CN(C1)Cc1c([nH]c3ccccc13)[C@@](C(=O)OC)(c1cc3c(cc1OC)N(C)[C@H]1[C@@](O)(C(=O)OC)[C@H](OC(C)=O)[C@]4(CC)C=CCN5CC[C@]31[C@@H]54)C2 [Vinorelbine (tartrate)],13.8,23,1.16,0,9.06,3.16,9.78,12.3,7.24,17.2,14.3,8.26,2.36,6.22,2.28,0.0429 µM,0.0843 µM,> 10 µM,0.0433 µM,1.54 µM,0.202 µM,0.141 µM,0.687 µM,0.249 µM,0.442 µM,0.583 µM,1.73 µM,,,
COc1ccc(S(=O)(=O)Nc2cccnc2Nc2ccc(O)cc2)cc1 [ABT-751],6.81,9.13,0,0,5.44,0.184,6.87,4.14,6.4,6.57,6.39,4.48,1.41,0,0,0.347 µM,0.891 µM,> 10 µM,0.412 µM,,0.615 µM,1.49 µM,1.17 µM,1.35 µM,0.992 µM,0.92 µM,> 10 µM,> 10 µM,> 10 µM,
Oc1ncnc2[nH]ncc12 [Allopurinol],0,2.18,0,0,0,0,0,0,0,0,0,0,0,0,0,> 10 µM,,> 10 µM,> 10 µM,> 10 µM,> 10 µM,> 10 µM,> 10 µM,> 10 µM,,> 10 µM,> 10 µM,,> 10 µM,> 10 µM
COCC1(CO)C(=O)C2CCN1CC2 (stereo unspecified) [Prima-1 Met],0,0,0,0,0,0,0.0674,0,0,0,0,0,0.24,0,0,> 10 µM,> 10 µM,> 10 µM,> 10 µM,> 10 µM,,> 10 µM,> 10 µM,> 10 µM,> 10 µM,> 10 µM,> 10 µM,> 10 µM,> 10 µM,
CCCCCOC(=O)Nc1nc(=O)n([C@@H]2O[C@H](C)[C@@H](O)[C@H]2O)cc1F [Capecitabine],0,0,0.129,0,1.86,0,0,0,0,0,0,0,0.0192,0,0,> 10 µM,> 10 µM,> 10 µM,,> 10 µM,> 10 µM,> 10 µM,> 10 µM,> 10 µM,> 10 µM,> 10 µM,> 10 µM,,> 10 µM,
CN(C)CCOc1ccc(/C(=C(/CCCl)c2ccccc2)c2ccccc2)cc1 [Toremifene (citrate)],0.652,4.16,0.357,1.2,0,0.599,0.353,3.26,3.53,4.96,5.77,3.09,0.814,0,0,,3.52 µM,4.15 µM,> 10 µM,,,3.69 µM,1.86 µM,3.41 µM,3.02 µM,3.46 µM,> 10 µM,,> 10 µM,
CCN(CC)CCOc1ccc(C(=C(Cl)c2ccccc2)c2ccccc2)cc1 [Clomifene citrate],4.53,5.95,1.02,3.09,0.493,1.42,0,6.09,3.26,5.39,8.36,2.56,2.03,0.434,1.21,3.34 µM,2.38 µM,3.2 µM,,3.81 µM,,2.36 µM,1.83 µM,2.8 µM,1.79 µM,3.17 µM,,,,3.33 µM
Cc1cc(Nc2cc(CN3CCOCC3)c3nc(C)c(Cc4ccc(Cl)cc4F)n3n2)n[nH]1,0,7.73,0,2.42,0,0,6.61,4.32,3.55,16.2,12.8,3.58,0.848,1.41,1.86,> 10 µM,1.04 µM,3.26 µM,> 10 µM,> 10 µM,1.41 µM,2.7 µM,1.56 µM,0.329 µM,0.749 µM,1.98 µM,,> 10 µM,,
Nc1ccn([C@@H]2O[C@H](CO)[C@@H](O)[C@@H]2O)c(=O)n1 [Cytarabine],0,0,1.96,0,3.25,0.265,4.84,1.56,4.13,0,0,0,2.46,2.75,0,> 10 µM,> 10 µM,> 10 µM,1.5 µM,,0.435 µM,,0.58 µM,> 10 µM,> 10 µM,> 10 µM,> 10 µM,,1.94 µM,
N#CCNC(=O)c1ccc(-c2ccnc(Nc3ccc(N4CCOCC4)cc3)n2)cc1 [Momelotinib (CYT-387)],0,0,0,3.23,0,0.68,1.83,4.64,5.08,1.15,0.414,1.42,0,0.52,0,> 10 µM,> 10 µM,2.03 µM,> 10 µM,,4.2 µM,2.52 µM,0.346 µM,5.2 µM,,4.18 µM,> 10 µM,> 10 µM,,
COc1ccccc1S(=O)(=O)Nc1ccc2c(c1)CN(C)C(=O)N2 [PFI-1],2.69,0.561,1.48,0,0.0459,1.01,2.8,2.92,4.01,0.704,2.35,1.76,1.77,0.887,0.0577,1.1 µM,,> 10 µM,,,2.53 µM,1.89 µM,0.492 µM,,1.62 µM,2.71 µM,,,,
COc1cc([C@@H]2c3cc4c(cc3[C@@H](O[C@@H]3O[C@@H]5CO[C@@H](C)O[C@H]5[C@H](O)[C@H]3O)[C@H]3COC(=O)[C@H]23)OCO4)cc(OC)c1O [Etoposide],0,1.71,1.42,0,3.42,0.761,0,0.239,5.76,0.0698,0,0,1.13,6.74,0.625,> 10 µM,,> 10 µM,0.612 µM,,> 10 µM,,0.667 µM,,> 10 µM,> 10 µM,,,0.605 µM,
C=CCN(/C=C1/C(=O)O[C@H](COC)[C@@]2(C)C1=C(O)C(=O)C1=C2[C@H](OC(C)=O)C[C@]2(C)C(=O)CC[C@@H]12)CC=C [Sonolisib (PX-866)],0,0,0.103,0,0,0.361,0,0,0,0,0,0,0.0742,0,0,> 10 µM,> 10 µM,> 10 µM,> 10 µM,,> 10 µM,,> 10 µM,> 10 µM,> 10 µM,> 10 µM,> 10 µM,,> 10 µM,
C[C@@H]1CCN(C(=O)CC#N)C[C@@H]1N(C)c1ncnc2[nH]ccc12 [Tofacitinib (Tasocitinib)],0,0,0,0,0,0,0,0.208,0,0,0,0,0.0132,0,0,> 5 µM,> 5 µM,> 5 µM,> 5 µM,> 5 µM,> 5 µM,,> 5 µM,> 5 µM,> 5 µM,> 5 µM,> 5 µM,> 5 µM,> 5 µM,
CC/C(=C(\c1ccc(O)cc1)c1ccc(OCCN(C)C)cc1)c1ccccc1 [4-hydroxytamoxifen],0.905,5.15,0.263,1.87,0,1.5,3.05,4.41,2.07,9.04,4.79,4.19,1.3,0.306,2.56,,3.35 µM,3.94 µM,> 10 µM,3.2 µM,2.87 µM,3.34 µM,2.88 µM,1.59 µM,3.57 µM,3.36 µM,3.9 µM,,,

# Reference: the supplement of paper PMC4932681
